Values after ≈ are worked out from the molar mass of the structure shown.
Tests used:
[1] = system: Mycobacterium tuberculosis; assay: Antimycobacterial activity against Mycobacterium tuberculosis H37Rv; format: functional; settings: Mycobacterium tuberculosis, H37Rv
[2] = Inhibition of Mycobacterium tuberculosis IMPDH
[3] = system: Mycobacterium tuberculosis; assay: Antimycobacterial activity against Mycobacterium tuberculosis H37Rv in logarithmic phase; format: functional
[4] = system: Mycobacterium tuberculosis; assay: Antimycobacterial activity against Mycobacterium tuberculosis H37Rv in hypoxia-induced latent phase; format: functional
[5] = system: Mycobacterium tuberculosis; assay: Antimycobacterial activity against non-replicating Mycobacterium tuberculosis; format: functional
[6] = system: Mycobacterium tuberculosis; assay: Growth inhibition of Mycobacterium tuberculosis H37Rv at 100 ug/ml relative to control; format: functional; settings: read-out: GI
[7] = system: Mycobacterium tuberculosis; assay: Antimycobacterial activity against Mycobacterium tuberculosis H37Rv ATCC 27294 by MABA; format: functional
[8] = Selectivity index, ratio of IC50 for African green monkey Vero cells to MIC for Mycobacterium tuberculosis H37Rv ATCC 27294; format: toxicity; settings: read-out: Selectivity Index
[9] = system: Mycobacterium tuberculosis; assay: Antimycobacterial activity against Mycobacterium tuberculosis; format: functional
[10] = system: Mycobacterium tuberculosis; assay: Antimycobacterial activity against Mycobacterium tuberculosis H37Rv after 5 days by MABA; format: functional; settings: 120 h

CC1(C)CCc2c(c3ccccc3c3nc(-c4c[nH]c5ccccc45)[nH]c23)O1
MIC [1]: 1.56 to 6.25 µg/mL (≈ 4.25 to 17 µM)

O=C(Cn1c(-c2cscn2)nc2ccccc21)Nc1ccc(F)cc1
IC50 [2]: 3000 to 10000 nM

N#Cc1ccc(NC(=O)Cn2c(-c3cscn3)nc3ccccc32)cc1
IC50 [2]: 3000 to 10000 nM

O=C(Cn1c(-c2cscn2)nc2ccccc21)Nc1ccc(Br)cc1
IC50 [2]: 3000 nM

O=C(Cn1c(-c2cscn2)nc2ccccc21)Nc1cccc(Cl)c1
IC50 [2]: 3000 to 10000 nM

COc1ccc(-c2cn(Cc3ccc(Cl)cc3Cl)cc2C(c2ccccc2)n2ccnc2)cc1 (centres undefined)
MIC [1]: 1 µg/mL (≈ 2.05 µM)

O=C(Cn1c(-c2cscn2)nc2ccccc21)Nc1ccc(Cl)cc1
IC50 [2]: 3000 to 10000 nM

Clc1ccc(Cn2cc(-c3ccccc3)c(C(c3ccccc3)n3ccnc3)c2)c(Cl)c1 (centres undefined)
MIC [1]: 1 to 16 µg/mL (≈ 2.18 to 34.9 µM)

COc1ccc(-c2nc3cc(-c4ccc5[nH]c(-c6ccc(OC)cc6)nc5c4)ccc3[nH]2)cc1
MIC [3]: 0.5 to 16 µg/mL (≈ 1.12 to 35.8 µM) | MIC [4]: 0.5 to 16 µg/mL (≈ 1.12 to 35.8 µM)

Oc1ccc(-c2nc3ccc(-c4ccc5nc(-c6ccc(O)cc6)[nH]c5c4)cc3[nH]2)cc1
MIC [3]: 0.5 to 16 µg/mL (≈ 1.19 to 38.2 µM) | MIC [4]: 0.5 to 16 µg/mL (≈ 1.19 to 38.2 µM)

CCc1nc2ccc(C)cc2n1CCCCOc1ccccc1
MIC [5]: 0.056 to 2.6 µM (≈ 0.0173 to 0.802 µg/mL)

CCc1nc2ccc(C)cc2n1CCCCNc1ccccc1
MIC [5]: 0.056 to 2.6 µM (≈ 0.0172 to 0.799 µg/mL)

COc1cccc(-c2nc3ccc(-c4ccc5nc(-c6cccc(OC)c6)[nH]c5c4)cc3[nH]2)c1
MIC [3]: 0.5 to 16 µg/mL (≈ 1.12 to 35.8 µM) | MIC [4]: 0.5 to 16 µg/mL (≈ 1.12 to 35.8 µM)

CCc1nc2ccc(C)cc2n1CCCCNc1ccc(OCc2ccccc2)cc1
MIC [5]: 0.056 to 2.6 µM (≈ 0.0232 to 1.08 µg/mL)

COc1ccc2c(c1)cc(-c1nc(-c3ccccc3)c(-c3ccccc3)n1-c1ccc(C)cc1)c1nnnn12
inhibition of growth at 100 µg/mL [6]: 17 to 99%

Cc1ccccc1NC(=O)Cn1c(-c2cscn2)nc2ccccc21
IC50 [2]: 3000 to 10000 nM

CCCSc1nnc(-c2ncc([N+](=O)[O-])[nH]2)s1
MIC [7]: 3.13 to 6.25 µg/mL (≈ 11.5 to 23 µM) | selectivity ratio [8]: 0.3 to 0.6

COc1ccc(-n2c(-c3cc4cc(Cl)ccc4n4nnnc34)nc(-c3ccccc3)c2-c2ccccc2)cc1
inhibition of growth at 100 µg/mL [6]: 17 to 99%

Clc1ccc2c(c1)cc(-c1nc(-c3ccccc3)c(-c3ccccc3)n1-c1ccccc1)c1nnnn12
inhibition of growth at 100 µg/mL [6]: 17 to 99%

CCCS(=O)(=O)c1nnc(-c2ncc([N+](=O)[O-])[nH]2)s1
MIC [7]: > 6.25 µg/mL | selectivity ratio [8]: 0.3 to 0.6

O=C1/C(=C\c2ccccc2)SC(c2ccc(-n3ccnc3)cc2)N1Nc1ccccc1 (centres undefined)
MIC [9]: 14.3 to 49.7 µM (≈ 6.06 to 21.1 µg/mL)

Cc1ccc(Oc2cc3[nH]c(Cn4ccnc4)nc3cc2F)cc1
MIC [1]: 12.5 to 100 µg/mL (≈ 38.8 to 310 µM)

O=C1/C(=C\c2ccc(Cl)cc2)SC(c2ccc(-n3ccnc3)cc2)N1Nc1ccccc1 (centres undefined)
MIC [9]: 14.3 to 49.7 µM (≈ 6.55 to 22.8 µg/mL)

c1ccc(-c2nc(-c3cc4ccccc4n4nnnc34)n(-c3ccccc3)c2-c2ccccc2)cc1
inhibition of growth at 100 µg/mL [6]: 17 to 99%

Cc1ccc(-n2c(-c3cc4cc(Cl)ccc4n4nnnc34)nc(-c3ccccc3)c2-c2ccccc2)cc1
MIC99 [1]: 25 µg/mL (≈ 48.7 µM) | inhibition of growth at 100 µg/mL [6]: 17 to 99%

Cc1ccc(-n2c(-c3cc4ccccc4n4nnnc34)nc(-c3ccccc3)c2-c2ccccc2)cc1
inhibition of growth at 100 µg/mL [6]: 17 to 99%

CCc1nc2ccc(C)cc2n1CCCCNc1ccc(OC)cc1
MIC [5]: 0.056 to 2.6 µM (≈ 0.0189 to 0.877 µg/mL)

CCc1nc2ccc(C)cc2n1CCCCSc1ccc(Cl)cc1
MIC [5]: 0.056 to 2.6 µM (≈ 0.0201 to 0.933 µg/mL)

CCc1nc2ccc(C)cc2n1CCCCNc1cccc(C(F)(F)F)c1
MIC [5]: 0.056 to 2.6 µM (≈ 0.021 to 0.976 µg/mL)

CC[S+]([O-])c1nnc(-c2ncc([N+](=O)[O-])[nH]2)s1 (centres undefined)
MIC [7]: 1.56 µg/mL (≈ 5.71 µM) | selectivity ratio [8]: 0.3 to 0.6

Fc1ccc(-c2cn(Cc3ccc(Cl)cc3Cl)cc2C(c2ccccc2)n2ccnc2)cc1 (centres undefined)
MIC [1]: 1 µg/mL (≈ 2.1 µM)

CCSc1nnc(-c2ncc([N+](=O)[O-])[nH]2)s1
MIC [7]: 3.13 to 6.25 µg/mL (≈ 12.2 to 24.3 µM) | selectivity ratio [8]: 0.3 to 0.6

COc1ccc(-n2c(-c3cc4cc(OC)ccc4n4nnnc34)nc(-c3ccccc3)c2-c2ccccc2)cc1
inhibition of growth at 100 µg/mL [6]: 17 to 99%

Fc1cc2nc(Cn3ccnc3)[nH]c2cc1Oc1ccccc1
MIC [1]: 12.5 to 100 µg/mL (≈ 40.5 to 324 µM)

O=C(Cn1c(-c2cscn2)nc2ccccc21)Nc1ccc(I)cc1
IC50 [2]: 3000 to 10000 nM

O=C1/C(=C\c2ccc(Br)cc2)SC(c2ccc(-n3ccnc3)cc2)N1Nc1ccccc1 (centres undefined)
MIC [9]: 14.3 to 49.7 µM (≈ 7.18 to 25 µg/mL)

Fc1cc2nc(Cn3ccnc3)[nH]c2cc1-n1ccnc1
MIC [1]: 12.5 to 100 µg/mL (≈ 44.3 to 354 µM)

Cc1ccc2c(c1)cc(-c1nc(-c3ccccc3)c(-c3ccccc3)n1-c1ccccc1)c1nnnn12
inhibition of growth at 100 µg/mL [6]: 17 to 99%

COc1ccc(-n2c(-c3cc4ccccc4n4nnnc34)nc(-c3ccccc3)c2-c2ccccc2)cc1
inhibition of growth at 100 µg/mL [6]: 17 to 99%

CCc1nc2ccc(C)cc2n1CCCNc1ccc(C)cc1
MIC [5]: 0.056 to 0.88 µM (≈ 0.0172 to 0.271 µg/mL)

Cc1ccc(-n2c(-c3cc4cc(C)ccc4n4nnnc34)nc(-c3ccccc3)c2-c2ccccc2)cc1
inhibition of growth at 100 µg/mL [6]: 17 to 99%

CS(=O)(=O)c1nnc(-c2ncc([N+](=O)[O-])[nH]2)s1
MIC [7]: > 6.25 µg/mL | selectivity ratio [8]: 0.3 to 0.6

COc1ccc(NC(=O)Cn2c(-c3cscn3)nc3ccccc32)c(OC)c1
IC50 [2]: 3000 to 10000 nM

C[S+]([O-])c1nnc(-c2ncc([N+](=O)[O-])[nH]2)s1 (centres undefined)
MIC [7]: 1.56 µg/mL (≈ 6.02 µM) | selectivity ratio [8]: 0.3 to 0.6

CCc1nc2ccc(C)cc2n1CCCNc1ccc(C)cc1C
MIC [5]: 0.056 to 0.88 µM (≈ 0.018 to 0.283 µg/mL)

COc1ccc(-c2nc3ccc(-c4ccc5nc(-c6ccccc6)[nH]c5c4)cc3[nH]2)cc1
MIC [3]: 0.25 to 1 µg/mL (≈ 0.6 to 2.4 µM) | MIC [4]: 0.25 to 1 µg/mL (≈ 0.6 to 2.4 µM)

CCc1nc2ccc(C)cc2n1CCCNc1ccc(OC)cc1
MIC [5]: 0.056 to 0.88 µM (≈ 0.0181 to 0.285 µg/mL)

COc1ccc(-n2c(-c3cc4cc(C)ccc4n4nnnc34)nc(-c3ccccc3)c2-c2ccccc2)cc1
inhibition of growth at 100 µg/mL [6]: 17 to 99%

O=C(Cn1c(-c2cscn2)nc2ccccc21)Nc1ccc([N+](=O)[O-])cc1
IC50 [2]: 3000 to 10000 nM

Fc1cc2nc(Cn3ccnc3)[nH]c2cc1Oc1ccc(Cl)cc1
MIC [1]: 12.5 to 100 µg/mL (≈ 36.5 to 292 µM)

CCc1nc2ccc(C)cc2n1CCCNc1ccccc1
MIC [5]: 0.056 µM (≈ 0.0164 µg/mL)

CCCOc1cccc(NC(=O)Cn2c(-c3cscn3)nc3ccccc32)c1
IC50 [2]: 3000 to 10000 nM

CCc1nc2ccc(C)cc2n1CCCSc1ccc(OC)cc1
MIC [5]: 0.056 to 0.88 µM (≈ 0.0191 to 0.3 µg/mL)

CCc1nc2ccc(C)cc2n1CCCCSc1ccccc1
MIC [5]: 0.056 to 2.6 µM (≈ 0.0182 to 0.844 µg/mL)

CCC[S+]([O-])c1nnc(-c2ncc([N+](=O)[O-])[nH]2)s1 (centres undefined)
MIC [7]: 1.56 µg/mL (≈ 5.43 µM) | selectivity ratio [8]: 0.3 to 0.6

CSc1nnc(-c2ncc([N+](=O)[O-])[nH]2)s1
MIC [7]: 3.13 to 6.25 µg/mL (≈ 12.9 to 25.7 µM)

COc1ccc2c(c1)cc(-c1nc(-c3ccccc3)c(-c3ccccc3)n1-c1ccccc1)c1nnnn12
inhibition of growth at 100 µg/mL [6]: 17 to 99%

Cc1ccc(/C=C2/SC(c3ccc(-n4ccnc4)cc3)N(Nc3ccccc3)C2=O)cc1 (centres undefined)
MIC [9]: 14.3 to 49.7 µM (≈ 6.26 to 21.8 µg/mL)

CCc1nc2ccc(C)cc2n1CCCCNc1cccc(Cl)c1
MIC [5]: 0.056 to 2.6 µM (≈ 0.0191 to 0.889 µg/mL)

O=C(Cn1c(-c2cscn2)nc2ccccc21)Nc1ccccc1
IC50 [2]: 3000 to 10000 nM

CCc1nc2ccc(C)cc2n1CCCCSc1ccc(OC)cc1
MIC [5]: 0.056 to 2.6 µM (≈ 0.0199 to 0.922 µg/mL)

Fc1cc2nc(Cn3ccnc3)[nH]c2cc1Cl
MIC [1]: 12.5 to 100 µg/mL (≈ 49.9 to 399 µM)

CCOc1ccc(-c2nc3ccc(-c4ccc5nc(-c6ccc(OCC)cc6)[nH]c5c4)cc3[nH]2)cc1
MIC [3]: 0.5 to 16 µg/mL (≈ 1.05 to 33.7 µM) | MIC [4]: 0.5 to 16 µg/mL (≈ 1.05 to 33.7 µM)

Nc1ccc(-c2nc3cc(-c4ccc5[nH]c(-c6ccc(N)cc6)nc5c4)ccc3[nH]2)cc1
MIC [3]: 0.5 to 16 µg/mL (≈ 1.2 to 38.4 µM) | MIC [4]: 0.5 to 16 µg/mL (≈ 1.2 to 38.4 µM)

O=C(O)c1cn(C2CC2)c2cc(N3CCNCC3)c(F)cc2c1=O [CIPROFLOXACIN]
MIC [10]: 3.12 µg/mL (≈ 9.43 µM)

NNC(=O)c1ccncc1 [ISONIAZID]
MIC [1]: 0.2 µg/mL (≈ 1.46 µM) | MIC [10]: 6.25 µg/mL (≈ 45.6 µM)

NC(=O)c1cnccn1 [PYRAZINAMIDE]
MIC [10]: 3.12 µg/mL (≈ 25.4 µM)

CN[C@@H]1[C@H](O[C@H]2[C@H](O[C@H]3[C@H](O)[C@@H](O)[C@H](N=C(N)N)[C@@H](O)[C@@H]3N=C(N)N)O[C@@H](C)[C@]2(O)C=O)O[C@@H](CO)[C@H](O)[C@H]1O [STREPTOMYCIN]
MIC [1]: 0.7 µg/mL (≈ 1.2 µM) | MIC [10]: 6.25 µg/mL (≈ 10.7 µM)

Reference: ChEMBL document CHEMBL4196086, “Recent advances of imidazole-containing derivatives as anti-tubercular agents” (Eur J Med Chem, 2018)
